From PMC12167809 (The Journal of Biological Chemistry, 2025)

System: β-TrCP1:β-catenin interaction
Format: binding, human
Conditions: saturating concentrations of glue, TR-FRET

COc1cc2c(cc1OC)CN(C(=O)c1c(Sc3c(Cl)cccc3Cl)cc(C(F)(F)F)[nH]c1=O)C2 [NRX-252262, 4-((2,6-dichlorophenyl)thio)-3-(5,6-dimethoxyisoindoline-2-carbonyl)-6-(trifluoromethyl)pyridin-2(1H)-one]
Effect on the β-TrCP1:β-catenin interaction: dramatically enhances the interaction between β-TrCP1 and β-catenin
